This passage reports EC50 and melting point results from patent publication US8071587B2, “(Dihydro)imidazoiso[5,1-A]quinolines” (N. V. Organon, priority 2009, dated 2011).

The target of one series is T1, human FSH receptor (Homo sapiens, UniProt P23945).
T1 construct: expressed in transfected cells; host or cells: Chinese Hamster Ovary (CHO) cells, stably transfected, cotransfected with a CRE/promoter-firefly luciferase reporter
T1 sequence (P23945 18-695): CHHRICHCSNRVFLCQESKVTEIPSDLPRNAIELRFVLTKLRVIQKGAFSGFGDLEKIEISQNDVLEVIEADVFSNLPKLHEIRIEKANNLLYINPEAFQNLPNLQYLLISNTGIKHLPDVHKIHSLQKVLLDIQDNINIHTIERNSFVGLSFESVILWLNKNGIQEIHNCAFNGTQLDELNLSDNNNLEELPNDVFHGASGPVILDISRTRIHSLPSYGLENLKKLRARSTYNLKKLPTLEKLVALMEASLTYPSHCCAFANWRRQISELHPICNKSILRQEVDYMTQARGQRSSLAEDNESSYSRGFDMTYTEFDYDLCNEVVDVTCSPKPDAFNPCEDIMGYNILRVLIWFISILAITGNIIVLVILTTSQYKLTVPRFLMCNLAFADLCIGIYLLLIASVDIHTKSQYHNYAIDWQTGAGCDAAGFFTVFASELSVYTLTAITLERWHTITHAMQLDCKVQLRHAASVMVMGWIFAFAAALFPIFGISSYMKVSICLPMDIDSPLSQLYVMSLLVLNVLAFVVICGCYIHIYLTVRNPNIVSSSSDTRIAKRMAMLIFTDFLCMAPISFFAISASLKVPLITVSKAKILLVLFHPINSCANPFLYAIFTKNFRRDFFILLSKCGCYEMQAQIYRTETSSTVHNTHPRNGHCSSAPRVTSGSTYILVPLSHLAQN
Briefly: Agonistic activity at the human FSH receptor expressed in CHO cells, CRE-luciferase reporter (hFSHRago CHO luc). The format is cell-based. As to conditions: CHO cells stably transfected with human FSH receptor and CRE/luciferase reporter; 4 hours of incubation. The text has this: The term EC50 means the concentration of the test compound that elicits half-maximal (50%) stimulation compared to the compound's maximally attainable effect. The values can be determined e.g. in a cell line transfected with a FSH receptor gene and cotransfected with a cAMP responsive element/promoter directing the expression of a reporter gene. Values can be determined using a software program such as MathIQ (version 2.0, ID Business Solutions Limited). Agonistic Activity of Compounds at the Human FSH Receptor Expressed in CHO Cells Agonistic activity of the compounds at the human FSH receptor was determined in Chinese Hamster Ovary (CHO) cells stably transfected with the human FSH receptor and cotransfected with a cAMP responsive element (CRE)/promotor directing the expression of a firefly luciferase reporter gene. Binding of the compounds to the Gs protein-coupled FSH receptor will result in an increase of cAMP, which in turn will induce an increased transactivation of the luciferase reporter. Cells (7,500 cells/well of a 384 well plate) were incubated in Dulbecco' minimal essential F12 modified medium (Invitrogen), supplemented with 1 μg/ml bovine insulin, 5 μg/ml human apo-transferrin, 80 U/ml penicillin G and 80 μg/ml streptomycin with the test compounds (concentration between 0.0316 nM and 10.0 μM) in duplicate in a humidified atmosphere (95%) at 5-7% CO2 and 37° C. The final concentration of DMSO was 1%. After 4 hours of incubation, plates were allowed to adjust to room temperature for 1 hour. Then, Luclite (PerkinElmer) solution was added to the wells and cells were allowed to lyse for at least 1 hour at room temperature. Subsequently, luciferase activity was measured in a luminescence counter. The signal is expressed as counts per second (cps). The EC50 (concentration of the test compound that elicits half-maximal (50%) luciferase stimulation compared to the compound's maximally attainable effect) and efficacy values (maximal effect of the test compound as percentage of the maximal effect of recombinant human FSH) of the compounds were determined using the software program MathIQ (version 2.0, ID Business Solutions Limited). EC50 data are indicated at the synthesis examples.

With `C=CCN1CCN(C(=O)c2nc(-c3cccs3)c3n2CCc2cc(OC)c(OC(C)C)cc2-3)CCC1=O` [Example 28, 4-Allyl-1-(9-isopropoxy-8-methoxy-1-thiophen-2-yl-5,6-dihydro-imidazo[5,1-a]isoquinoline-3-carbonyl)-[1,4]diazepan-5-one], the midpoint of the response at human FSH receptor, the EC50, lay at 3 nM.
On the same count and under the same terms, then `COC1=CC2CCn3c(C(=O)N(C)C(C)(C)C)nc(-c4cccs4)c3C2C=C1c1cccnc1` (stereo not drawn) [Example 2a, 8-Methoxy-9-pyridin-3-yl-1-thiophen-2-yl-5,6,6a,10a-tetrahydro-imidazo[5,1-a]isoquinoline-3-carboxylic acid tert-butyl-methyl-amide], with 1 nM.
Still for that read-out and setting: as for `CCn1nnc(-c2cc3c(cc2OC)CCn2c(C(=O)N(C)C(C)(C)C)nc(-c4cccs4)c2-3)n1` [Example 51c, 9-(2-Ethyltetrazol-5-yl-)-8-methoxy-1-thiophen-2-yl-5,6-dihydro-imidazo[5,1-a]isoquinoline-3-carboxylic acid tert-butyl-methyl-amide], the figure is 5 nM.
Turning to `COc1cc2ccn3c(C(=O)N(C)C(C)(C)C)nc(-c4cccs4)c3c2cc1OC(C)C` [Example 15j, 9-Isopropoxy-8-methoxy-1-thiophen-2-yl-imidazo[5,1-a]isoquinoline-3-carboxylic acid tert-butyl-methyl-amide], the melting point lay in the range of 163 to 164 °C. This molecule had an EC50 on human FSH receptor of 6.5 nM.
On human FSH receptor, `CCCCN1CCN(C(=O)c2nc(-c3cccs3)c3n2CCc2cc(OC)c(OC(C)C)cc2-3)CCC1=O` [Example 27b, 4-Butyl-1-(9-isopropoxy-8-methoxy-1-thiophen-2-yl-5,6-dihydro-imidazo[5,1-a]isoquinoline-3-carbonyl)-[1,4]diazepan-5-one] gave an EC50 of 0.6 nM.
